Patent publication US9981983B2, “Thienopyranones as kinase inhibitors” (SignalRx Pharmaceuticals, Inc., priority 2008, dated 2018)
pIC50: −log10 of the molar value.

What was measured:
mTOR = mTOR (Homo sapiens, UniProt P42345); experiment: mTOR inhibition; type: biochemical
[1] = tested on: pAKT serine 473 level in PC3 cells; experiment: pAKT status in IGF-1 stimulated PC3 cells (Ser473 pAKT ELISA); type: cell-based; conditions: Homo sapiens, PC-3; PC3 cells; read-out: IC50 pAKT (Pathway Inhibition)
Experimental: PC3 cells were obtained from the American Type Culture Collection (ATCC, Manassas, Va., Cat.# CRL-1435). Two million cells from the prostate cancer line PC3 were placed into 6 cm culture dishes and allowed to grow in complete RPMI 1640 media (Invitrogen, Carlsbad, Calif., Cat.#22400-105) with 10% fetal bovine serum (Invitrogen, Carlsbad, Calif., Cat.#10438-026). After this time period the cells were serum starved for 5 hours followed by application of the test compound. Test compound was added as a DMSO (dimethyl sulfoxide) solution such that the final DMSO concentration in the cell media was less than or equal to 0.2% by volume After 30 minutes of exposure the growth factor stimulant, human IGF-1 (PeproTech, Inc., Rocky Hill, N.J., Cat.#100-11), was added to a final concentration of 0.1 μg/ml in each well. After 30 minutes of IGF-1 exposure, cells were removed from the media and cell lysates were prepared using RIPA Lysis buffer (Upstate, Lake Placid, N.Y., Cat.#20-188), keeping on ice. The pAKT serine 473 level was measured in duplicate samples of the cell lysates using commercially available assays such as the Pathscan® Sandwich ELISA kit for Ser473 pAKT (Cell Signaling, Danvers, Mass., Cat.#7160). A SpectraMax Plus spectrophotometric plate reader (Molecular Devices, Sunnydale, Calif.) was used to measure the optical density signal for pAKT at 450 nm (OD450 nm). The pAKT OD450 nm readings were normalized by total protein amount in the cell lysates determined by standard methods.
Concentrations of test compounds required to inhibit IGF stimulated pAKT levels to 50% of maximum levels in PC3 cells (termed DM50 for decreased maximum 50%) were calculated by inputting the dose responses in the software package GraphPad Prism4 (GraphPad Software, Inc., San Diego, Calif.).
By these methods a number of compounds of the invention were evaluated and the concentration needed to reduce the detectable pAKT to 50% of the maximal uninhibited signal was calculated. These values (in μMolar units) are listed in Table 8 under the column heading PC3 pAKT IC50 (μMolar).

PC3 cells = experiment: PC3 prostate cancer cell proliferation (WST); type: cell-based; conditions: Homo sapiens, PC-3; PC3 cells; read-out: PC3 IC50 Proliferation
Experimental: PC3 cells were obtained from the American Type Culture Collection (ATCC, Manassas, Va., Cat.# CRL-1435) Two thousand cells from the prostate cancer line PC3 were placed in 50 μL of complete RPMI 1640 media (Invitrogen, Carlsbad, Calif., Cat.#22400-105) with 10% fetal bovine serum (Invitrogen, Carlsbad, Calif., Cat.#10438-026) into each well of 96 well cell culture plates in a hexaplicate sampling pattern. A 50 μL aliquot of test compound (prepared from stock test compounds in DMSO diluted into media) was added to the appropriate well such that the final concentrations of test compound were 200, 40, 8, 1.6, 0.32, 0.064, 0.0128, 0.00256, and 0 μM and the final DMSO concentration was less than or equal to 0.2%.
The plates were incubated for 72 hours 37° C. in an atmosphere of 5% CO2. At the end of this time a 10 μL aliquot of WST solution (Roche Applied Science, Mannheim, Germany) was added into each of the wells. Cells were exposed to the WST solution for 4 hours. A SpectraMax Plus spectrophotometric plate reader (Molecular Devices, Sunnydale, Calif.) was then used to measure the optical density at 450 nm (OD450 nm). Sigmoidal curves were drawn for the dose responses and IC50 values were calculated using the software package GraphPad Prism4 (GraphPad Software, Inc., San Diego, Calif.).

[2] = tested on: 786-0 renal cell carcinoma xenograft; experiment: 786-0 renal cell carcinoma xenograft mouse model; type: in vivo, nude mice; conditions: 25 mg/kg, ip, 3×/wk for 4 weeks
Experimental: To determine if Cpd 9 has anti-tumor effects, an in vivo study was conducted in a 786-0 renal cell carcinoma xenograft model, 786-0 cells (2×10^6) were inoculated subcutaneously into nude mice in the flank area and tumor growth was monitored with calipers via external measurements. Tumor volume was calculated using the formula volume=(length×width^2)/2. When the average tumor volume reached 400 mm^3, mice were randomly divided into 2 groups and treated with either DMSO (control) or Cpd 9 (25 mg/kg, ip) three times weekly (M, W, F) for two weeks.
To determine if Cpd 28 has anti-tumor effects, an in vivo study was conducted in a 786-0 renal cell carcinoma xenograft model, 786-0 cells (2×10^6) were inoculated subcutaneously into nude mice in the flank area and tumor growth was monitored with calipers via external measurements. Tumor volume was calculated using the formula volume=(length×width^2)/2. Treatment was started when tumors reached an average volume of 300 mm^3. […] DMSO was used as control since this was the vehicle the compounds were dissolved in. Tumor size was monitored twice weekly and body weight was monitored once weekly. Means and standard deviations were calculated and the Student t test method was used for statistical comparisons.

PI-3 kinases = conditions: Vlahos et al. J. Biol. Chem. 1994; cited from earlier work

O=c1cc(N2CCOCC2)oc2c(-c3ccccc3)cccc12 [LY294002, 2-morpholino-8-phenyl-4H-chromen-4-one, reference compound]
pIC50 (mTOR): 5.97
pIC50 [1]: 5.89
pIC50 (PC3 cells): 4.92 to 5.12
tumor growth inhibition compared to control [2]: 54%
pIC50 (PI-3 kinases): 5.85
